Measurements reported in the NIST ThermoML archive (doi:10.1021/je0496995).

Assay: mn = molality of the nth substance listed, in mol/kg
Conditions: Liquid; for viscosity: 101.3 kPa, Capillary tube (Ostwald / Ubbelohde) method; for mass density: 101.33 kPa, Pycnometric method

O=C(O)c1cccnc1 [3-carboxylpyridine] + Cc1cccnc1
Conditions | mass density [kg/m3] | viscosity [mPa·s]
293.15 K, m1 = 0.02469 | 956.7 | 0.9504
293.15 K, m1 = 0.107 | 959.5 | 0.9659
293.15 K, m1 = 0.2134 | 964.1 | 0.9908
293.15 K, m1 = 0.319 | 969.5 | 1.015
293.15 K, m1 = 0.424 | 975.8 | 1.05
293.15 K, m1 = 0.5284 | 983 | 1.107
303.15 K, m1 = 0.02469 | 947.3 | 0.8363
303.15 K, m1 = 0.107 | 950.1 | 0.8514
303.15 K, m1 = 0.2134 | 954.6 | 0.8764
303.15 K, m1 = 0.319 | 960 | 0.9018
303.15 K, m1 = 0.424 | 966.4 | 0.9368
303.15 K, m1 = 0.5284 | 973.5 | 0.9891
313.15 K, m1 = 0.02469 | 938.4 | 0.7399
313.15 K, m1 = 0.107 | 941.2 | 0.7553
313.15 K, m1 = 0.2134 | 945.7 | 0.7804
313.15 K, m1 = 0.319 | 951 | 0.8048
313.15 K, m1 = 0.424 | 957.5 | 0.8396
313.15 K, m1 = 0.5284 | 964.7 | 0.8961
323.15 K, m1 = 0.02469 | 929 | 0.661
323.15 K, m1 = 0.107 | 931.8 | 0.6762
323.15 K, m1 = 0.2134 | 936.3 | 0.7014
323.15 K, m1 = 0.319 | 941.5 | 0.7265
323.15 K, m1 = 0.424 | 947.8 | 0.7613
323.15 K, m1 = 0.5284 | 955.2 | 0.8173
333.15 K, m1 = 0.02469 | 920 | 0.5981
333.15 K, m1 = 0.107 | 922.8 | 0.6134
333.15 K, m1 = 0.2134 | 927.2 | 0.6381
333.15 K, m1 = 0.319 | 932.5 | 0.6632
333.15 K, m1 = 0.424 | 938.7 | 0.6983
333.15 K, m1 = 0.5284 | 946.2 | 0.7541
343.15 K, m1 = 0.02469 | 911 | 0.5434
343.15 K, m1 = 0.107 | 913.8 | 0.5594
343.15 K, m1 = 0.2134 | 918.2 | 0.5833
343.15 K, m1 = 0.319 | 923.5 | 0.6086
343.15 K, m1 = 0.424 | 929.7 | 0.6431
343.15 K, m1 = 0.5284 | 937.2 | 0.6997
